Data set [1] has as its system RSV genotype B, strain 9320. Kind of data set: RSV-B assay: A549 cells infected with RSV-B, qPCR or ATPlite readout. It counts as cell-based. As to conditions: read-out: Human RSV-B EC50. An excerpt:
HEp-2 cells, (originally derived from tumors grown in irradiated-cortisonised weanling rats that had been injected with epidermoid carcinoma tissue from a person's larynx, but later found to be indistinguishable from HeLa cells by PCR DNA analysis), were used for the culturing of genotype B, strain 9320. Flasks were inoculated with RSV-B and viral stocks were collected once cytopathic effect (CPE) was greater than […]. Viral stocks in 25% sucrose media were snap frozen using liquid nitrogen to increase viral stability. Viral stock titers were quantified by tissue culture infectious dose 50% (TCID50) using 8,000 cells per well and 5-fold viral dilutions across a 96-well plate, cultured for 4 days. Viral stock titers were also quantified by a plaque forming unit assay, as described elsewhere.
The assay is run as follows: A549 cells (originally derived through explant culture from a person's carcinomatous lung tissue) are seeded into the inner 60 wells of a 96-well plate at 3,000 cells per well in a volume of 50 μL using A549 growth media (F-12K Media, 1% Penn/Strep, 1% nonessential amino acids, 10% heat-inactivated FBS). 2-fold serial dilutions of control and test compounds are added to the wells in duplicate in a total volume of 25 μL. Viral stock is then added to the wells at a multiplicity of infection (MOI) of 0.5 in a volume of 25 μL, bringing the total volume of each well to 100 μL. The MOI is calculated using the PFU/mL, or TCID50 if unavailable. Each 96-well plate has a control column of 6 wells with cells and virus but no compound (negative control, max CPE), a column with cells but no compound or virus (positive control, minimum CPE), and a column with no cells or virus or compound (background plate/reagent control). The control wells with cells but no virus are given an additional 25 μL of growth media containing an equal quantity of sucrose as those wells receiving the viral stock in order to keep consistent in media and volume conditions. The outer wells of the plate are filled with 125 μL of moat media (DMEM, 1% Penn/Strep) to act as a thermal and evaporative moat around the test wells. 6 days post infection, the plates are read using qPCR or ATP lite (50 μL added per well), which quantifies the amount of ATP (a measure of cell health) present in each well. Assay plates treated with APTlite are read using the Envision luminometer. […] EC50 ranges are as follows: A <0.4 μM; B 0.4-0.8 μM; C >0.8 μM.

For data set [2], the system named is genotype A, "Long" strain RSV. Nature of the data set: RSV-A assay: CPE protection in HEp-2 cells, ATPlite readout. It counts as cell-based, human respiratory syncytial virus. Put shortly: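 HEp-2 cells (8,000/well) with 2-fold compound dilutions in duplicate, infected with Long-strain RSV at MOI 0.1 and incubated 5 days. Cell ATP measured by ATPlite luminescence to give EC50; uninfected parallel plate gives CC50.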

The test system of data set [3] is HEp-2 cells. Nature of the data set: Cytotoxicity in parallel to the RSV-A assay (no virus), ATPlite readout. The format is cell-based, human. On the procedure:
Following extensive parameter testing, the final assay is run as follows: HEp-2 cells are seeded into the inner 60 wells of a 96-well plate at 8,000 cells per well in a volume of 50 μL using Growth Media (DMEM without phenol red, 1% L-Glut, 1% Penn/Strep, 1% nonessential amino acids, 10% heat-inactivated FBS). 2-fold serial dilutions of control and test compounds are added to the wells in duplicate in a total volume of 25 μL. Viral stock is then added to the wells at a multiplicity of infection (MOI) of 0.1 in a volume of 25 μL, bringing the total volume of each well to 100 μL. The MOI is calculated using the PFU/mL, or TCID50 if unavailable. Each 96-well plate has a control column of 6 wells with cells and virus but no compound (negative control, max CPE), a column with cells but no compound or virus (positive control, minimum CPE), and a column with no cells or virus or compound (background plate/reagent control). The control wells with cells but no virus are given an additional 25 μL of growth media containing an equal quantity of sucrose as those wells receiving the viral stock in order to keep consistent in media and volume conditions. The outer wells of the plate are filled with 125 μL of moat media (DMEM, 1% Penn/Strep) to act as a thermal and evaporative moat around the test wells. Following a 5-day incubation period, the plates are read using ATPlite (50 μL added per well), which quantifies the amount of ATP (a measure of cell health) present in each well. Assay plates are read using the Envision luminometer. In parallel, cytotoxicity is examined on an additional 96-well plate treated in an identical manner, but substituting the 25 μL of viral stock for 25 μL of growth media. […] EC50 ranges are as follows: A <0.4 μM; B 0.4-0.8 μM; C >0.8 μM and CC50 ranges are as follows: A >50 μM; B 10-50 μM; C <10 μM.

[4] abbreviates: human respiratory syncytial virus, A549, 144 h.
Where [5] appears, read: human respiratory syncytial virus, HEp-2, read-out: Human RSV-A (“Long” strain) EC50.

Read-outs that look alike come from different tables or passages of the source.

In the case of `CC(C)n1cc(-c2nnc(N[C@H]3N=C(c4ccccc4)c4ccccc4NC3=O)o2)c(N2CCOCC2)n1` [Example 403], the EC50 in data set [1] (setting [4]) and in data set [2] (setting [5]) was < 400 nM throughout.

On to `O=C1Nc2ccccc2C(c2ccccc2)=N[C@@H]1Nc1nnc(-c2nc(-c3ccccn3)sc2N2CCOCC2)o1` [Example 341], for which the EC50 in data set [1] (setting [4]) and in data set [2] (setting [5]) was < 400 nM throughout.

On to `CCc1nc(-c2nnc(N[C@H]3N=C(c4ccccc4)c4ccccc4NC3=O)o2)c(N2CCOCC2)s1` [Example 385], for which the EC50 in data set [1] (setting [4]) and in data set [2] (setting [5]) was < 400 nM throughout.

Consider `O=C1Nc2c(F)cccc2C(c2ccccc2)=N[C@@H]1Nc1nnc(-c2cccnc2N2CCOCC2)o1` (single isomer, unassigned) [Example 358], for which the EC50 was < 400 nM in data set [1] (A549 cells, strain 9320, MOI 0.5, 6 days post infection) and < 400 nM in data set [2] (HEp-2 cells, RSV-A Long strain, ATPlite readout, read-out: Human RSV-A (“Long” strain) EC50).

As for `CN(C)c1ccc(-c2nnc(NC3N=C(c4ccccc4)c4ccccc4NC3=O)o2)nc1` (stereo not shown) [Example 108], the EC50 in data set [1] (setting [4]) and in data set [2] (setting [5]) was > 800 nM throughout.

`N#Cc1ccc(-c2ccc(NC3N=C(c4ccccc4)c4ccccc4NC3=O)nn2)cc1` (stereo not shown) [Example 377]: the EC50 in data set [1] (setting [4]) and in data set [2] (setting [5]) was < 400 nM throughout.

Take `O=C1Nc2ccccc2C(c2ccccc2)=N[C@@H]1Nc1nnc(-c2nc(-c3ccccc3)sc2N2CCOCC2)o1` [Example 340]: the EC50 in data set [1] (setting [4]) and in data set [2] (setting [5]) was < 400 nM each time.

Take `O=C1Nc2ccccc2C(c2ccccc2)=N[C@@H]1Nc1nnc(-c2ncc(C(F)(F)F)cc2N2CCC(F)CC2)o1` [Example 269]: the EC50 in data set [1] (setting [4]) was 400 to 800 nM; in data set [2] (setting [5]), > 800 nM.

As to `N#Cc1ccc(-c2nnc(NC3N=C(c4ccccc4)c4ccccc4NC3=O)o2)c(N2CCOCC2)c1` (stereo not shown) [Example 131], the EC50 in data set [1] (setting [4]) and in data set [2] (setting [5]) was < 400 nM in each case.

Take `O=C1Nc2ccccc2C(c2ccccc2)=N[C@@H]1Nc1nnc(-c2nc3ccccc3cc2N2CCOCC2)o1` [Example 322]: the EC50 in data set [1] (setting [4]) and in data set [2] (setting [5]) was < 400 nM in each case.

Turning to `N#Cc1cnc(-c2nnc(N[C@H]3N=C(c4ccccc4)c4ccccc4NC3=O)o2)c(N2CC3CCC(C2)O3)c1` [Example 304], the EC50 in data set [1] (setting [4]) and in data set [2] (setting [5]) was < 400 nM each time.

Regarding `N#Cc1ccc(-c2nnc(N[C@H]3N=C(c4ccccc4)c4ccccc4NC3=O)o2)c(N2CCOCC2)n1` [Example 153], the half-maximal effective concentration (EC50) in data set [1] (setting [4]) and in data set [2] (setting [5]) was < 400 nM each time.

`O=C1Nc2ccccc2C(c2ccccc2)=NC1Nc1nnc(-c2cccnc2N2CCOCC2)o1` (stereo not shown) [Example 120]: the EC50 in data set [1] (setting [4]) was 400 to 800 nM; in data set [2] (setting [5]), < 400 nM.

In the case of `O=C1Nc2ccccc2C(c2ccccc2)=N[C@@H]1Nc1nnc(-c2ncc(C(F)(F)F)cc2N2CC3CCC(C2)O3)o1` [Example 251], the EC50 in data set [1] (setting [4]) and in data set [2] (setting [5]) was < 400 nM in each case.

`Cc1ccc(-c2nnc(N[C@H]3N=C(c4ccccc4)c4ccccc4NC3=O)o2)c(N2CCOCC2)n1` [Example 252]: the EC50 in data set [1] (setting [4]) and in data set [2] (setting [5]) was < 400 nM each time.

With `O=C1Nc2ccccc2C(c2ccccc2)=N[C@@H]1Nc1nnc(-c2ncc(F)cc2N2CCOCC2)o1` [Example 136, (S)-3-((5-(5-fluoro-3-morpholinopyridin-2-yl)-1,3,4-oxadiazol-2-yl)amino)-5-phenyl-1,3-dihydro-2H-benzo[e][1,4]diazepin-2-one], the EC50 in data set [1] (setting [4]) and in data set [2] (setting [5]) was < 400 nM in each case.

`Cc1nc(N2CCOCC2)c(-c2nnc(N[C@H]3N=C(c4ccccc4)c4ccccc4NC3=O)o2)cc1C#N` [Example 158]: the half-maximal effective concentration (EC50) in data set [1] (setting [4]) and in data set [2] (setting [5]) was < 400 nM in each case.

As to `COC1CCN(c2cc(C(F)(F)F)cnc2-c2nnc(N[C@H]3N=C(c4ccccc4)c4ccccc4NC3=O)o2)CC1` [Example 268], the EC50 in data set [1] (setting [4]) is 400 to 800 nM; in data set [2] (setting [5]), > 800 nM.

As to `O=C1Nc2ccccc2C(c2ccccc2)=N[C@@H]1Nc1nnc(-c2cccnc2N2CCOCC2)o1` [Example 242], the EC50 in data set [1] (setting [4]) and in data set [2] (setting [5]) was < 400 nM in each case.

In the case of `CC(F)(F)c1nc(-c2nnc(N[C@H]3N=C(c4ccccc4)c4ccccc4NC3=O)o2)c(N2CCOCC2)s1` [Example 407], the 50% effective concentration (EC50) in data set [1] (setting [4]) and in data set [2] (setting [5]) was < 400 nM throughout.

Turning to `O=C1Nc2ccccc2C(c2ccccc2)=N[C@@H]1Nc1nnc(-c2nc(C3CC3)sc2N2CCOCC2)o1` [Example 338], the EC50 in data set [1] (setting [4]) and in data set [2] (setting [5]) was < 400 nM each time.

Turning to `O=C1Nc2ccccc2C(c2ccccc2)=N[C@@H]1Nc1nnc(-c2ncc(C3CC3)cc2N2CCOCC2)o1` [Example 169], the EC50 in data set [1] (setting [4]) and in data set [2] (setting [5]) was < 400 nM in each case.

Take `O=C1Nc2ccccc2C(c2ccccc2)=N[C@@H]1Nc1nnc(-c2nc(-c3cccnc3)sc2N2CCOCC2)o1` [Example 388]: the EC50 in data set [1] (setting [4]) and in data set [2] (setting [5]) was < 400 nM throughout.

For the compound `O=C1Nc2ccccc2C(c2ccccc2)=N[C@@H]1Nc1nnc(-c2nc(C(F)(F)F)sc2N2CCOCC2)o1` [Example 339], the concentration giving a half-maximal response (EC50) in data set [1] (setting [4]) and in data set [2] (setting [5]) was < 400 nM in each case.

With `C[C@H]1CN(c2cc(C(F)(F)F)cnc2-c2nnc(N[C@H]3N=C(c4ccccc4)c4ccccc4NC3=O)o2)CCO1` [Example 278], the EC50 in data set [1] (setting [4]) and in data set [2] (setting [5]) was < 400 nM in each case.

Take `O=C1Nc2ccccc2C(c2ccccc2)=NC1Nc1nnc(-c2ccccc2N2CCOCC2)o1` (stereo not shown) [Example 125]: the EC50 in data set [1] (setting [4]) lay in the range of 400 to 800 nM.

As to `O=C1Nc2ccccc2C(c2ccccc2)=N[C@@H]1Nc1nnc(-c2nc(C3CCC3)sc2N2CCOCC2)o1` [Example 387], the EC50 in data set [1] (setting [4]) and in data set [2] (setting [5]) was < 400 nM in each case.

For `O=C1Nc2ccccc2C(c2ccccc2)=N[C@@H]1Nc1nnc(-c2oc3ccccc3c2N2CCOCC2)o1` [Example 179], the EC50 in data set [1] (setting [4]) and in data set [2] (setting [5]) was < 400 nM in each case.

For `N#Cc1cnc(-c2nnc(N[C@H]3N=C(c4ccccc4)c4ccccc4NC3=O)o2)c(N2CCOCC2)c1` [Example 160], the EC50 in data set [1] (setting [4]) was < 400 nM.

Take `O=C1Nc2ccccc2C(c2ccccc2)=NC1Nc1nnc(-c2ccc(N3CCOCC3)cc2)o1` (stereo not shown) [Example 124]: the EC50 in data set [1] (setting [4]) is < 400 nM.

As for `O=C1Nc2ccccc2C(c2ccccc2)=NC1Nc1nnc(-c2ccc(-n3cccn3)cc2)o1` (stereo not shown) [Example 36], the CC50 in data set [3] was in the range of 10000 to 50000 nM. Moreover, the EC50 in data set [2] (setting [5]) was 400 to 800 nM.

Take `O=C1Nc2ccccc2C(c2ccccc2)=NC1Nc1nnc(-c2cccc3ccccc23)o1` (stereo not shown) [Example 17]: the CC50 in data set [3] was > 50000 nM. In data set [2] (setting [5]), the half-maximal effective concentration (EC50) is > 800 nM.

On to `O=C1Nc2ccccc2C(c2ccccc2)=N[C@H]1Nc1nnc(-c2ccco2)o1` [Example 10b], for which the CC50 in data set [3] is < 10000 nM. Besides, the EC50 in data set [2] (setting [5]) is > 800 nM.

Regarding `O=C1Nc2ccccc2C(c2ccccc2)=NC1Nc1nnc(-c2nccs2)o1` (stereo not shown) [Example 69], in data set [3], the CC50 is > 50000 nM. Besides, the EC50 in data set [2] (setting [5]) was > 800 nM.

With `O=C1Nc2ccccc2C(c2ccccc2)=NC1Nc1cc(N2CCOCC2)ncn1` (stereo not shown) [Example 93], the CC50 in data set [3] lay in the range of 10000 to 50000 nM. Further, the EC50 in data set [2] (setting [5]) was > 800 nM.

The record behind these values is patent US12268694B2, “Combination pharmaceutical agents as RSV inhibitors” (Enanta Pharmaceuticals, Inc., priority 2017, dated 2025).
